Reference: ChEMBL document CHEMBL1140793, “Amino acid derivatives as histone deacetylase inhibitors” (2008)

Tests used:
[1] = test system: HCT-116; assay: Growth inhibition of human HCT116 cells after 72 hrs; type: functional
[2] = molecular target: Histone deacetylase 1 (Homo sapiens) (UniProt Q13547); assay: Inhibition of HDAC1
Histone deacetylase 1 (Homo sapiens), sequence (Q13547 whole entry): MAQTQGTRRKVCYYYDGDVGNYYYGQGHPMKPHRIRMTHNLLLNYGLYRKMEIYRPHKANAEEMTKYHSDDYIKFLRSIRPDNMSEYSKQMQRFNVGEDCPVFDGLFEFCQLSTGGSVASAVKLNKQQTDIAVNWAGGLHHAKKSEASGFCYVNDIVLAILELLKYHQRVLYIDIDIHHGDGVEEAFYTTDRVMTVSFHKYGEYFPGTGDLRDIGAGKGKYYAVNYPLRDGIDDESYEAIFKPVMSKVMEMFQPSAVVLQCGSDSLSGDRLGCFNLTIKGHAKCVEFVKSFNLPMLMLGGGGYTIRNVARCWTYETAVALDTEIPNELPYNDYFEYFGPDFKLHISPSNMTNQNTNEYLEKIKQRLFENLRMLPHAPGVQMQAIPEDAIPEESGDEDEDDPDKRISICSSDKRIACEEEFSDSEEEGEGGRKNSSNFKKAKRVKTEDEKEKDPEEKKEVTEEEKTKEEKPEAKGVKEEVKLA

Structure (SMILES) | Inflection point [1] [nM] | Inflection point [2] [nM]
Cc1ccc(NC(=O)C(c2ccc3cc(C(=O)Nc4ccccc4N)sc3c2)N2CCN(C)CC2)cc1 (single isomer, unassigned; enantiomer 2) [listing 1 of 2 here] | 560 | 
Nc1ccccc1NC(=O)c1cc2ccc(C(NCCc3ccccn3)C(=O)NCc3ccccc3)cc2s1 (stereo not drawn) |  | 110
Nc1ccccc1NC(=O)c1cc2ccc(C(NCCO)C(=O)NCc3ccccc3)cc2s1 (stereo not drawn) |  | 150
Cc1ccc(NC(=O)C(NC(=O)CCc2ccccc2)c2ccc(C(=O)Nc3ccccc3N)cc2)cc1 (stereo not drawn) | 3000 | 340
COc1ccc(NC(=O)C(NC(=O)Cc2ccccc2)c2ccc(C(=O)Nc3ccccc3N)cc2)cc1 (stereo not drawn) | 6400 | 870
Nc1ccccc1NC(=O)c1ccc(C(NC(=O)CCc2ccccc2)C(=O)Nc2ccc3ccccc3c2)cc1 (stereo not drawn) | 2700 | 250
CN1CCN(C(Cc2ccc(C(=O)Nc3ccccc3N)cc2)C(=O)Nc2ccc(Cl)cc2)CC1 (stereo not drawn) | 370 | 310
COCCNC(C(=O)NCc1ccccc1)c1ccc2cc(C(=O)Nc3ccccc3N)sc2c1 (stereo not drawn) |  | 170
Cc1ccc(NC(=O)C(NC(=O)Cc2ccccc2)c2ccc(C(=O)Nc3ccccc3N)cc2)cc1 (stereo not drawn) | 8100 | 690
CC(C)(C)OC(=O)N1CCN(C(C(=O)NCc2ccccc2)c2ccc3cc(C(=O)Nc4ccccc4N)sc3c2)CC1 (stereo not drawn) |  | 260
COc1ccc(CNC(C(=O)Nc2ccc(OC)cc2)c2ccc3cc(C(=O)Nc4ccccc4N)sc3c2)cc1 (stereo not drawn) |  | 90
Cc1ccc(NC(=O)C(c2ccc3cc(C(=O)Nc4ccccc4N)sc3c2)N2CCN(C)CC2)cc1 (single isomer, unassigned; enantiomer 2) [listing 2 of 2 here] |  | 18
CN1CCN(C(C(=O)Nc2ccc3ccccc3c2)c2ccc3cc(C(=O)Nc4ccccc4N)sc3c2)CC1 (stereo not drawn) | 580 | 25
CN1CCN(C(C(=O)NCc2ccccc2)c2ccc3cc(C(=O)Nc4ccccc4N)sc3c2)CC1 (stereo not drawn) | 430 | 110
CN1CCN(C(C(=O)Nc2ccc3ccccc3c2)c2ccc(C(=O)Nc3ccccc3N)cc2)CC1 (stereo not drawn) | 640 | 360
CCN1CCN(C(C(=O)NCc2ccccc2)c2ccc3cc(C(=O)Nc4ccccc4N)sc3c2)CC1 (stereo not drawn) | 490 | 80
Nc1ccccc1NC(=O)c1ccc(C(C(=O)Nc2ccc3ccccc3c2)N2CCN(CCc3ccccc3)CC2)cc1 (stereo not drawn) |  | 680
Nc1ccccc1NC(=O)c1ccc(C(NC(=O)Cc2ccccc2)C(=O)Nc2ccc3ccccc3c2)cc1 (stereo not drawn) | 2700 | 170
CN1CCN(C(C(=O)Nc2ccc(Cl)cc2)c2ccc(C(=O)Nc3ccccc3N)cc2)CC1 (stereo not drawn) |  | 6200
Nc1ccccc1NC(=O)c1cc2ccc(C(NCc3cccnc3)C(=O)NCc3ccccc3)cc2s1 (stereo not drawn) |  | 180
Nc1ccccc1NC(=O)c1cc2ccc(C(C(=O)NCc3ccccc3)N3CCN(C/C=C/c4ccccc4)CC3)cc2s1 (stereo not drawn) |  | 230
Nc1ccccc1NC(=O)c1cc2ccc(C(NCCc3ncc[nH]3)C(=O)NCc3ccccc3)cc2s1 (stereo not drawn) |  | 520

Structure (SMILES) | Inflection point [1] [nM] | Inflection point [2] [nM]
COc1ccc(NC(=O)C(NCCc2ccccc2)c2ccc3cc(C(=O)Nc4ccccc4N)sc3c2)cc1 (stereo not drawn) |  | 71
Cc1ccc(NC(=O)C(c2ccc3cc(C(=O)Nc4ccccc4N)sc3c2)N2CCN(C)CC2)cc1 (single isomer, unassigned; enantiomer 1) [listing 1 of 2 here] | 130 | 
Nc1ccccc1NC(=O)c1cc2ccc(C(NCCc3ccccc3)C(=O)NCc3ccccc3)cc2s1 (stereo not drawn) |  | 70
COc1ccc(NC(=O)C(c2ccc3cc(C(=O)Nc4ccccc4N)sc3c2)N2CCN(C)CC2)cc1 (stereo not drawn) | 410 | 43
CN(C)CCNC(C(=O)NCc1ccccc1)c1ccc2cc(C(=O)Nc3ccccc3N)sc2c1 (stereo not drawn) |  | 150
COc1ccc(NC(=O)C(NC(=O)CCc2ccccc2)c2ccc(C(=O)Nc3ccccc3N)cc2)cc1 (stereo not drawn) | 2800 | 260
Nc1ccccc1NC(=O)c1cc2ccc(C(C(=O)NCc3ccccc3)N3CCN(c4ccccc4)CC3)cc2s1 (stereo not drawn) |  | 150
Nc1ccccc1NC(=O)c1cc2ccc(C(C(=O)NCc3ccccc3)N3CCN(CCc4ccccc4)CC3)cc2s1 (stereo not drawn) |  | 180
COc1ccc(NC(=O)C(NCCc2ccncc2)c2ccc3cc(C(=O)Nc4ccccc4N)sc3c2)cc1 (stereo not drawn) |  | 32
CN1CCN(C(C(=O)NCc2ccccc2)c2ccc(C(=O)Nc3ccccc3N)cc2)CC1 (stereo not drawn) |  | 860
Nc1ccccc1NC(=O)c1cc2ccc(C(NCCc3ccccc3)C(=O)NCCN3CCOCC3)cc2s1 (stereo not drawn) |  | 230
COc1ccc(NC(=O)C(NCc2ccccc2)c2ccc3cc(C(=O)NO)sc3c2)cc1 (stereo not drawn) |  | 4
Nc1ccccc1NC(=O)c1cc2ccc(C(C(=O)NCc3ccccc3)N3CCN(C(=O)OCc4ccccc4)CC3)cc2s1 (stereo not drawn) |  | 470
COc1ccc(NC(=O)C(NC2CCCCC2)c2ccc3cc(C(=O)Nc4ccccc4N)sc3c2)cc1 (stereo not drawn) |  | 74
COc1ccc(NC(=O)C(NCc2ccccc2)c2ccc3cc(C(=O)Nc4ccccc4N)sc3c2)cc1 (stereo not drawn) |  | 79
Cc1ccc(NC(=O)C(c2ccc3cc(C(=O)Nc4ccccc4N)sc3c2)N2CCN(C)CC2)cc1 (racemic) [listing 1 of 2 here] |  | 25
Cc1ccc(NC(=O)C(c2ccc3cc(C(=O)Nc4ccccc4N)sc3c2)N2CCN(C)CC2)cc1 (racemic) [listing 2 of 2 here] | 240 | 
Cc1ccc(NC(=O)C(c2ccc3cc(C(=O)Nc4ccccc4N)sc3c2)N2CCN(C)CC2)cc1 (single isomer, unassigned; enantiomer 1) [listing 2 of 2 here] |  | 21
CN1CCN(C(C(=O)Nc2ccc(Cl)cc2)c2ccc3cc(C(=O)Nc4ccccc4N)sc3c2)CC1 (stereo not drawn) | 340 | 62
Nc1ccccc1NC(=O)c1ccc(C(C(=O)Nc2ccc3ccccc3c2)N2CCN(c3ccccc3)CC2)cc1 (stereo not drawn) |  | 620
Nc1ccccc1NC(=O)c1cc2ccc(C(NCCc3ccncc3)C(=O)NCc3ccccc3)cc2s1 (stereo not drawn) |  | 39
CN1CCN(C(Cc2ccc(C(=O)Nc3ccccc3N)cc2)C(=O)Nc2ccc3ccccc3c2)CC1 (stereo not drawn) | 220 | 37
